Measurements from patent publication US20250034115A1, “CRYSTALLINE FORMS OF C-C CHEMOKINE RECEPTOR TYPE 4 ANTAGONIST AND USES THEREOF” (RAPT THERAPEUTICS, INC., priority 2023, published 2025).

Experiment: Salt screen, comments on water content / hydration versus humidity
Format: physicochemical
Protocol: Experiments to form salts were performed and evaluated using 45 different acids and bases and 15 different solvents, either alone or in some combination, which are listed in Table 1 below, and notable results of those experiments are presented in Table 2 below. L-arginine Saccharin Methyl isobutyl ketone

| Structure (SMILES) | level of hydration over humidity range (Additional Comments) (0.5 equiv, polymorph formed at higher (>70° C.) temperature compared with polymorph formed at ambient temp) | hygroscopicity (Additional Comments) (1.0 equiv, water, highly variable water content based on humidity) |
| --- | --- | --- |
| O=C(O)[C@H](O)[C@@H](O)C(=O)O [L-Tartaric Acid] | temperature had a more stable level |  |
| Cc1nc(N2CC([C@H]3CCCN([C@H]4C[C@](C)(C(=O)[O-])C4)C3)C2)nc(N[C@H](C)c2ccc(Cl)cc2Cl)c1Cl.[Na+] [NaOH, (1R,3r)-3-((R)-3-(1-(5-chloro-4-(((R)-1-(2,4-dichlorophenyl)ethyl)amino)-6-methylpyrimidin-2-yl)azetidin-3-yl)piperidin-1-yl)-1-methylcyclobutane-1-carboxylic acid, sodium salt] |  | Highly hydroscopic (highly variable |
